Test results published in ChEMBL document CHEMBL1150637, “African elephant sesquiterpenes. II. Identification and synthesis of new derivatives of 2,3-dihydrofarnesol” (J Nat Prod, 2002).
Active and inactive are the calls of the source. The rule behind the calls is not given here.

Tested on: Mycobacterium tuberculosis
Assay: Antimycobacterial activity against Mycobacterium tuberculosis by radiorespirometric bioassay
Type: functional, organism-based

`CC(C)=CCC/C(C)=C/CC/C(C)=C/CO` was tested. Which Activity did it give?
Its Activity is “Active”.
